Results as given in patent publication US20140017223A1, “Pharmaceutical Compositions Comprising A Pancreatic Enzyme Preparation With Viral Infectivity Reduced Below A Significant Level And Methods Of Preparing And Using The Same” (Aptalis Pharma Canada Inc., priority 2010, published 2014).

Columns and labels:
amylase = experiment: Amylase activity of pancrelipase after BPL treatment, freezing and lyophilization (USP 31 method); type: biochemical; details: for Loss of Amylase Activity: pancrelipase, freezing, lyophilization, precision 5-10%
Method: Enzymatic activity for the enzymes of a PEP (e.g., proteases, lipases, and amylases) can be determined, for example, by using the United States Pharmacopeia (USP) monographed methods (The United States Pharmacopeia and the National Formulary (USP 31/NF 26). 2008. Rockville (MD): United States Pharmacopeial Convention, Inc.).
The samples c-d from all the experiments were tested for lipase, protease, and amylase enzymatic activity using USP 31 monographed methods. See Example 11 and Table 11.
Table 11 presents the lipase, protease, and amylase activity for aliquots of the pancrelipase after BPL treatment for 30 min at 25° C. followed by freezing and lyophilization (same treatment as for samples in Example 10).

PPV [1] = experiment: Inactivation of spiked PPV in PEP by BPL, PPV titered by chloroform/PEG method (Example 3); type: cell-based, porcine parvovirus (PPV)
Text: U.S. Patent Publication No. 2009/0226414, incorporated by reference herein, provides a reproducible and efficient method for detecting an infectious non-enveloped virus, such as PPV, in an enzyme preparation (e.g., a pancreatic enzyme preparation) by treating the preparation prior to determining its viral infectivity. This method preserves the infectious non-enveloped virus while substantially eliminating the toxic enzyme materials from the PEP samples.
The steps of this method include:
(a) extracting a sample of the preparation at least two times with chloroform to produce a clarified sample with an upper phase and a lower phase;
(b) precipitating an aliquot of the upper phase from step (a) with polyethylene glycol (PEG);
(c) suspending the product from step (b) in a buffer;
(d) precipitating the product from step (c) with PEG;
(e) suspending the product from step (d) in a solution;
(f) removing excess PEG and fine particles from product (e) by chloroform, this allows (i) in step (e) the suspending in a 10-times smaller volume to increase the overall sensitivity up to 10-fold; and (ii) removal of the remaining interfering materials from the least diluted steps of the most toxic samples; and
(g) detecting the presence of or measuring the amount of infectious virus in the solution.
Pancrelipase powders from 2 different lots were each dissolved in 100 mM Tris, pH=8.3, at a concentration of 100 mg/ml. Two ml non-purified PPV viral stock (prepared using standard protocols (Arella et al., Physicichemical properties, production, and purification of parvoviruses. 1990, In Tijssen, P. (ed.), CRC handbook of parvoviruses. Boca Raton, Fla.: CRC Press, 11-30)) were added to 38 ml of the pancrelipase solution. The virus was mixed with the PEP using slow shaking at room temperature for one day. Aliquots were taken from the PPV-spiked pancrelipase stocks and each was incubated with different concentrations of BPL (available from Sigma-Aldrich, St. Louis, Mo.) (except the control) for 48 hours at room temperature (20° C.). […] Determination of the FFID50 was performed using the fluorescence assay as described in the PPV FFID-infectivity assay of U.S. Patent Publication No. 2009/0226414.
The experiment described in Example 1 was repeated except PEG-purified PPV was used for the infectivity assay as described in U.S. Patent Publication No. 2009/0226414.

PPV [2] = experiment: Inactivation of PPV by BPL in higher concentration of PEP (200 mg/ml), time course, thiosulfate quench (Example 5); type: cell-based, porcine parvovirus (PPV); details: 200 mg PEP/ml
Method: The focus of this experiment was to measure the effect of increased PEP concentration on the efficiency of the inactivation procedure and to evaluate lower concentration ranges of BPL.
PPV virus stock (prepared using standard protocols (Arella et al., Physicochemical properties, production, and purification of parvoviruses. 1990, In Tijssen, P. (ed.), CRC handbook of parvoviruses. Boca Raton, Fla.: CRC Press, 11-30)) was diluted with water and this solution (containing 1.42×10^10 FFID50 PPV viruses) was used to suspend the 0.5 gram of PEP powder to yield a final concentration of 200 mg PEP/ml.
Tubes were incubated for one hour at 25° C. before the addition of BPL. BPL was added either directly to the PEP solution (for a final concentration of 0.4 vol. %) or it was first diluted ten and hundred times for final concentrations of 0.04 vol. % and 0.004 vol. %, respectively. After the addition of BPL, the solution was further mixed and incubated at 25° C. for a predetermined period (1, 2, 4, 6, or 8 hours). A sodium thiosulfate solution was freshly prepared on the day of each inactivation experiments. After the period expired for the BPL inactivation, sodium thiosulfate was added to the PEP solution, mixed intensively and incubated at least 6 hours at 4° C. to quench the excess BPL. After this step the infectivity titration experiments as described in U.S. Patent Publication No. 2009/0226414 were performed. All experiments were done using three parallel samples for each time point.

PPV [3] = experiment: Inactivation of PPV by 0.8% (v/v) BPL at 4° C. (Example 6); type: cell-based, porcine parvovirus (PPV); details: 0.8% BPL (4 h) at 4° C.
Method: Samples prepared as in Example 1 were treated for four hours with 0.8% (v/v) BPL at 4° C.

O=C1CCO1 [BPL, Beta-propiolactone] was tested, and the Amylase activity maintained (amylase; lyophilized samples treated with 0.4% BPL and 0.8% BPL) was “maintained the majority”, the “Loss of Amylase Activity” value (amylase; 0.4% BPL 30 min 25° C.) was 11.40% and the “Loss of Amylase Activity” value (amylase; 0.8% BPL 30 min 25° C.) was 28.22%. The “PPV Titer reduction” value (PPV [1]; PEP #1, 0.04% (v/v) BPL) was 10 FFID50/g, the “PPV Titer reduction” value (PPV [1]; PEP #1, 0.10% (v/v) BPL) was 10 FFID50/g and the “PPV Titer reduction” value (PPV [1]; PEP #1, 0.25% (v/v) BPL) was 10^5 FFID50/g. The “PPV Titer reduction” value (PPV [1]; PEP #2, 0.04% (v/v) BPL) was 10 FFID50/g, the “PPV Titer reduction” value (PPV [1]; PEP #2, 0.10% (v/v) BPL) was 10^2 FFID50/g and the “PPV Titer reduction” value (PPV [1]; PEP #2, 0.25% (v/v) BPL) was 10^5 FFID50/g. For the same compound, the “PPV Titer reduction” value (PPV [1]; PEP #3, 0.04% (v/v) BPL) was 10 FFID50/g, the “PPV Titer reduction” value (PPV [1]; PEP #3, 0.10% (v/v) BPL) was 10^2 FFID50/g and the “PPV Titer reduction” value (PPV [1]; PEP #3, 0.25% (v/v) BPL) was 10^5 FFID50/g. For the same compound, the “PPV Titer reduction” value (PPV [1]; PEP #4, 0.04% (v/v) BPL) was 10 FFID50/g, the “PPV Titer reduction” value (PPV [1]; PEP #4, 0.10% (v/v) BPL) was 10^2 FFID50/g and the “PPV Titer reduction” value (PPV [1]; PEP #4, 0.25% (v/v) BPL) was 10^4 FFID50/g. For the same compound, the “Detected PPV titer average” value (PPV [2]; 0.004% BPL, 1 hr at 25° C.) was 8.13 × 10^9 FFID50/g, the Log10 of inactivation (PPV [2]; 0.004% BPL, 1 hr at 25° C.) was 0.4 Log10 and the “Detected PPV titer average” value (PPV [2]; 0.004% BPL, 2 hr at 25° C.) was 5.96 × 10^9 FFID50/g. The Log10 of inactivation (PPV [2]; 0.004% BPL, 2 hr at 25° C.) was 0.6 Log10, the “Detected PPV titer average” value (PPV [2]; 0.004% BPL, 4 hr at 25° C.) was 5.86 × 10^9 FFID50/g and the Log10 of inactivation (PPV [2]; 0.004% BPL, 4 hr at 25° C.) was 0.58 Log10. For the same compound, the “Detected PPV titer average” value (PPV [2]; 0.004% BPL, 6 hr at 25° C.) was 6.65 × 10^9 FFID50/g, the Log10 of inactivation (PPV [2]; 0.004% BPL, 6 hr at 25° C.) was 0.53 Log10 and the “Detected PPV titer average” value (PPV [2]; 0.004% BPL, 8 hr at 25° C.) was 6.68 × 10^9 FFID50/g. For the same compound, the Log10 of inactivation (PPV [2]; 0.004% BPL, 8 hr at 25° C.) was 0.53 Log10, the “Detected PPV titer average” value (PPV [2]; 0.04% BPL, 1 hr at 25° C.) was 4.01 × 10^9 FFID50/g and the Log10 of inactivation (PPV [2]; 0.04% BPL, 1 hr at 25° C.) was 0.7 Log10. For the same compound, the “Detected PPV titer average” value (PPV [2]; 0.04% BPL, 2 hr at 25° C.) was 2.06 × 10^9 FFID50/g, the Log10 of inactivation (PPV [2]; 0.04% BPL, 2 hr at 25° C.) was 1.0 Log10 and the “Detected PPV titer average” value (PPV [2]; 0.04% BPL, 4 hr at 25° C.) was 1.54 × 10^9 FFID50/g. The Log10 of inactivation (PPV [2]; 0.04% BPL, 4 hr at 25° C.) was 1.2 Log10, the “Detected PPV titer average” value (PPV [2]; 0.04% BPL, 6 hr at 25° C.) was 7.66 × 10^8 FFID50/g and the Log10 of inactivation (PPV [2]; 0.04% BPL, 6 hr at 25° C.) was 1.5 Log10. The “Detected PPV titer average” value (PPV [2]; 0.04% BPL, 8 hr at 25° C.) was 4.91 × 10^8 FFID50/g, the Log10 of inactivation (PPV [2]; 0.04% BPL, 8 hr at 25° C.) was 1.7 Log10 and the “Detected PPV titer average” value (PPV [2]; 0.4% BPL, 1 hr at 25° C.) was 3.06 × 10^7 FFID50/g. The Log10 of inactivation (PPV [2]; 0.4% BPL, 1 hr at 25° C.) was 2.8 Log10, the “Detected PPV titer average” value (PPV [2]; 0.4% BPL, 2 hr at 25° C.) was 8.69 × 10^6 FFID50/g and the Log10 of inactivation (PPV [2]; 0.4% BPL, 2 hr at 25° C.) was 3.4 Log10. For the same compound, the “Detected PPV titer average” value (PPV [2]; 0.4% BPL, 4 hr at 25° C.) was 2.13 × 10^6 FFID50/g, the Log10 of inactivation (PPV [2]; 0.4% BPL, 4 hr at 25° C.) was 4.0 Log10 and the “Detected PPV titer average” value (PPV [2]; 0.4% BPL, 6 hr at 25° C.) was 3.26 × 10^5 FFID50/g. For the same compound, the Log10 of inactivation (PPV [2]; 0.4% BPL, 6 hr at 25° C.) was 4.8 Log10, the “Detected PPV titer average” value (PPV [2]; 0.4% BPL, 8 hr at 25° C.) was 1.69 × 10^5 FFID50/g and the Log10 of inactivation (PPV [2]; 0.4% BPL, 8 hr at 25° C.) was 5.1 Log10. The “Log Reduction” value (PPV [3]; media Mixture water + IPA) was 4.9 Log, the “Sample infectivity after treatment with BPL” value (PPV [3]; media Mixture water + IPA) was 5.2 FFID50/g log and the “Log Reduction” value (PPV [3]; media Water) was 5.2 Log. For the same compound, the “Sample infectivity after treatment with BPL” value (PPV [3]; media Water) was 5.0 FFID50/g log.
